# Source: ChEMBL document CHEMBL1158893, “New icetexane and 20 norabietane diterpenes with trypanocidal activity from Dracocephalum komarovi” (2003)
# System: Trypanosoma cruzi
# Assay: Trypanocidal activity against Trypanosoma cruzi epimastigotes
# Format: functional
compound,measurement,value
COc1c(O)c2c(c(O)c1C(C)C)C(=O)C[C@H]1[C@]3(C)CCC[C@]21OC3 [DRACOCEPHALONE A],MLC,200 µM
CN(C)c1ccc(C(=C2C=CC(=[N+](C)C)C=C2)c2ccc(N(C)C)cc2)cc1.[Cl-] [GENTIAN VIOLET],MLC,6.3 µM
COC1=C(C(C)C)C(=O)C2=C(C[C@@]34CCCC(C)(C)[C@@H]3C[C@]2(O)O4)C1=O [KOMAROVIQUINONE],MLC,0.4 µM
CC(C)c1c(O)c2c(c3c1OCO3)C[C@@]1(O)CCCC(C)(C)[C@@H]1CC2=O [CYCLOCOULTERONE],MLC,20 µM
